Measurements taken from patent publication US20260092085A1, “SYNTHETIC TRIPLEX PEPTIDE NUCLEIC ACID-BASED INHIBITORS FOR CANCER THERAPY” (University of Connecticut, priority 2022, published 2026).

Columns and labels:
miR-155 [1] = test: miR-155 gene expression by RT-PCR in U2932 cells; type: cell-based, human; settings: U2932, 500 nM, 48 hours, relative to scrambled control
Procedure: FIGS. 3A-F show cell culture-based functional assay in U2932 lymphoma cells. (3A) γtcPNA-155-TAMRA uptake in the U2932 lymphoma cell line: Representative flow cytometry traces of TAMRA fluorescence in U2932 cells after treatment with 500 nM dose of γtcPNA-155-TAMRA for 48 hours. The data was analyzed by FlowJo software. (3B) Normalized miR-155 gene expression levels in U2932 after treatment with phosphate buffer saline (PBS) as a control and with 500 nM dose of Scr-γtcPNA-155, PNA-155, γPNA-155 and γtcPNA-155 for 48 hours compared to average control U6 (n=3), data represented as mean±standard error mean (SEM), Statistical analysis was performed using Unpaired two-tailed t-test. Further, statistical analysis was performed relative to Scr-γtcPNA-155 treated cells. ***p<0.001. (3C) Gene expression level of miR-155 downstream genes, tumor suppressor proteins (FOXO3A, CUX1, SOCS1, CSF1R, JARID2, SHIP1, PICALM, PDCD4, BACH1, WEE1, TP53TG3, CASP3, PTEN) in U2932 cell line after treatment with PBS as a control and with after treatment with 500 nM of Scr-γtcPNA-155, PNA-155, γPNA-155 and γtcPNA-155 for 48 hours. Data is normalized with average GAPDH control (n=3), and represented as mean±SEM, *p<0.05. Unpaired two-tailed t-test was used for statistical analysis and analysis was performed relative to Scr-γtcPNA-155 treated cells. (3D) Gene expression level of miR-155 downstream genes MCL1 in U2932 cell line after treatment with PBS as a control and 500 nM of Scr-γtcPNA-155, PNA-155, γPNA-155 and γtcPNA-155 for 48 hours. Data is normalized with average GAPDH control (n=3), and represented as mean±SEM, *p<0.05, **p<0.01 and ***p<0.001. […] (3E) Representative western blot of Mcl-1 and its quantification (n=3 technical replicate) and (3F) Caspase-3 protein and its quantification (n=3 technical replicate) in U2932 cell line after treatment with 500 nM of Scr-γtcPNA-155, PNA-155 and γtcPNA-155 for 48 hours. […] Numbers above western blot panels represent relative quantification of the respective bands using ImageJ software and normalized relative to loading control and treatment control. […]

miR-155 downstream genes = test: Gene expression of miR-155 downstream genes by RT-PCR in U2932 cells; type: cell-based, human; settings: U2932, 500 nM, 48 hours
Procedure: FIGS. 3A-F show cell culture-based functional assay in U2932 lymphoma cells. (3A) γtcPNA-155-TAMRA uptake in the U2932 lymphoma cell line: Representative flow cytometry traces of TAMRA fluorescence in U2932 cells after treatment with 500 nM dose of γtcPNA-155-TAMRA for 48 hours. The data was analyzed by FlowJo software. (3B) Normalized miR-155 gene expression levels in U2932 after treatment with phosphate buffer saline (PBS) as a control and with 500 nM dose of Scr-γtcPNA-155, PNA-155, γPNA-155 and γtcPNA-155 for 48 hours compared to average control U6 (n=3), data represented as mean±standard error mean (SEM), Statistical analysis was performed using Unpaired two-tailed t-test. Further, statistical analysis was performed relative to Scr-γtcPNA-155 treated cells. ***p<0.001. (3C) Gene expression level of miR-155 downstream genes, tumor suppressor proteins (FOXO3A, CUX1, SOCS1, CSF1R, JARID2, SHIP1, PICALM, PDCD4, BACH1, WEE1, TP53TG3, CASP3, PTEN) in U2932 cell line after treatment with PBS as a control and with after treatment with 500 nM of Scr-γtcPNA-155, PNA-155, γPNA-155 and γtcPNA-155 for 48 hours. Data is normalized with average GAPDH control (n=3), and represented as mean±SEM, *p<0.05. Unpaired two-tailed t-test was used for statistical analysis and analysis was performed relative to Scr-γtcPNA-155 treated cells. (3D) Gene expression level of miR-155 downstream genes MCL1 in U2932 cell line after treatment with PBS as a control and 500 nM of Scr-γtcPNA-155, PNA-155, γPNA-155 and γtcPNA-155 for 48 hours. Data is normalized with average GAPDH control (n=3), and represented as mean±SEM, *p<0.05, **p<0.01 and ***p<0.001. Statistical analysis was performed using Unpaired two-tailed t-test. Analysis was performed relative to Scr-γtcPNA-155 treated cells. (3E) Representative western blot of Mcl-1 and its quantification (n=3 technical replicate) and (3F) Caspase-3 protein and its quantification (n=3 technical replicate) in U2932 cell line after treatment with 500 nM of Scr-γtcPNA-155, PNA-155 and γtcPNA-155 for 48 hours. Data is represented as mean±SEM and unpaired two-tailed t-test was used for statistical analysis. *p<0.05 **p<0.01. Numbers above western blot panels represent relative quantification of the respective bands using ImageJ software and normalized relative to loading control and treatment control.
Gene expression by RT-PCR: 400,000 U2932 cells were seeded in a 12 well plate. The cells were treated with 500 nM PNA-155, gamma tcPNA-155, gamma PNA-155, Scr gamma tcPNA-155 or were PBS treated (control) for 48 hrs in an incubator (37° C. and 5% CO2). The cells were centrifuged at 2000 rpm for 4 mins at 4° C. The total RNA from the cell pellet was extracted using RNeasy® mini kit (Qiagen). The cDNA was prepared in thermal cycler (Bio-rad) using reverse transcriptase, RNase inhibitor, dNTPs, nuclease-free water and RT primers specific for miR-155 and U6. Random primers were used for the preparation of cDNA for downstream targets. The cDNA was amplified using miR-155 assay, U6 assay, or specific downstream target assays in CFX Connect™ Real-time PCR detection system (Bio-rad). The samples were subjected to polymerase activation (95° C. for 10 mins), followed by 40 cycles of denaturation (95° C. for 15 sec) and annealing (60° C. for 1 min). The 2^−ΔΔCT method was used to calculate the fold change in target genes.

[2] = system: U2932 subcutaneous tumors; test: Tumor growth in U2932 derived xenograft model; type: in vivo, NSG mice; settings: intra-tumoral injections days 0, 7, 14
Procedure: Mouse tumor xenograft: Female NSG mice (NOD.Cg-Prkdcscid Il2rgtm1Wjl/SzJ, strain 005557) weighing 20-23 g were procured from Jackson laboratories. 1×10^7 U2932 cells suspended in RPMI-1640 medium were injected subcutaneously in the right and left flank of 6-week-old NSG mice. The mice developed a small bump in 2 weeks. When the tumor volume reached 100-200 mm^3, the mice were randomly assigned to the treatment group (n=6 per group).
(§1) RNA and Protein extraction from tumor samples: The mice were injected intra-tumorally with 1 mg kg-1 dose of PNA-155, γtcPNA-155, γPNA-155, Scr-γtcPNA-155 or were untreated. The injections were repeated two additional times after 1 week each. The length, breadth, and depth of the tumors were measured daily using a vernier caliper. The mice were euthanized when the tumor volumes reached 2000 mm^3. The resected tumor sections were finely minced using a sterile blade and suspended in dissociation media (4 ml) comprising of RPMI-1640, 1.2 mg/ml dispase, and 0.5 mg/ml collagenase for 90 mins at 500 rpm at 37° C. The dissociated tumors were washed with buffer saline at 2500 rpm (4 mins) at 4° C. and then suspended in 0.25% trypsin for 4 mins at room temperature. RPMI 1640 media was added to the trypsinized tumor mass, and the cells were passed through a 70 um filter. The cells were centrifuged at 2500 rpm for 4 mins at 4° C. The cell pellet was then suspended in 1×RBC lysis buffer (Sigma) and incubated on ice for 10 mins. PBS was added to the cells and the cells were passed through a 40 um filter. The cells were centrifuged at 2500 rpm for 4 mins at 4° C. The cell pellet was resuspended in 0.5% BSA in PBS. The mouse cells were removed from the tumor cells using a mouse cell depletion kit (Miltenyi Biotec) according to the manufacturer's protocol. The enriched tumor cells from each tumor sample were divided into two fractions. RNA for gene expression analysis was extracted from one tumor fraction by the same procedure as mentioned earlier. The protein for western blot analysis was extracted from the second fraction using the method described above.
For the efficacy study, each mouse received three intra-tumoral injections of either γtcPNA-155, γPNA-155 or PNA-155 on days 0, 7, 14. We noticed that the control and scrambled treated tumors reached 2000 mm^3 much faster during our study, so we could not inject a third time in these mice. […] In contrast, as stated earlier, there was no effect on the control and scrambled PNA control on the tumor volume.

miR-155 [3] = test: miR-155 gene expression in U2932 tumor samples after in vivo treatment; set-up: species or system NSG mice; settings: U2932 xenograft, intra-tumoral
Procedure: FIGS. 22A-D show in vivo gene expression and protein level analysis. (22A) miR-155 gene expression levels in U2932 tumor samples after in vivo treatment with indicated PNAs. Data was normalized with average control U6 (n=4, data represented as mean±standard error mean). ***p<0.001 (22B) Gene expression level of downstream target genes of miR-155: MCL1 in U2932 tumor samples after treatment with total 3 mg kg-1 dose of Scr-γtcPNA-155, PNA-155, γPNA-155 and γtcPNA-155 and normalized with average control GAPDH (n=3, data represented as mean±SEM), unpaired two-tailed t-test was performed for analysis). *p<0.05, **p<0.01 (22C) Representative western blot of Mcl-1 protein and its quantification (n=3 technical replicate) in U2932 tumor samples treated with total 3 mg kg-1 dose of Scr-γtcPNA-155, PNA-155 and γtcPNA-155. Data is represented as mean±SEM and unpaired two-tailed t-test was performed for analysis. *p<0.05. The relative protein levels were determined from the band intensity using ImageJ software and normalized relative to loading control and treatment control. (22D) Gene expression level of tumor suppressor proteins (FOXO3A, CUX1, SOCS1, CSF1R, JARID2, SHIP1, PICALM, PDCD4, BACH1, CASP3) in U2932 tumor samples after treatment with total 3 mg kg-1 dose of Scr-γtcPNA-155, PNA-155, γPNA-155 and γtcPNA-155 and normalized with average control GAPDH (n=3, data represented as mean±SEM, unpaired two-tailed t-test was performed for statistical analysis). *p<0.05, **p<0.01.
as §1, with “The mouse cells were removed from the tumor cells using a mouse cell depletion kit (Miltenyi Biotec) according to the manufacturer's protocol. The enriched tumor cells from each tumor sample were divided into two fractions. RNA for gene expression analysis was extracted from one tumor fraction by the same procedure as mentioned earlier. The protein for western blot analysis was extracted from the second fraction using the method described above.” left out

γPNA-155: single-stranded full-length serine gamma PNA binding miR-155 by Watson-Crick pairing, SEQ ID NO: 1 (ACCCCTATCACGATTAGCATTAA; all peptide nucleic acid (PNA); serine gamma-PNA, two arginine residues (X1 RR) at each terminus, further chemistry not fully specified)
miR-155 inhibition (miR-155 [1]): ~83%
de-repression of miR-155 target tumor suppressor genes (miR-155 downstream genes): significant de-repression
reduction in MCL1 gene expression levels (miR-155 downstream genes): 19%
tumor growth / tumor volume [2]: reduced the tumor growth
decrease in miR-155 gene expression in tumors (miR-155 [3]): 80%
